Biological target: T1, Luc2-CaM fusion (UniProt P08659+P0DP23, D3I/E2D/N119G/N50D)
T1 construct: made in house; host or cells: cell-free: TnT Coupled Reticulocyte Lysate System
Assay: C-terminal modulated luciferase fusion system (calmodulin)
Format: biochemical, human

| SMILES | increase of luminescence (EGTA final concentration 3 mM, Luc2-CaM TnT lysate in LAR) | effect on EGTA-induced increase in luminescence (1 μl 100 mM CaCl2 added after EGTA) |
| --- | --- | --- |
| O=C(O)CN(CCOCCOCCN(CC(=O)O)CC(=O)O)CC(=O)O [EGTA] | about 9 fold |  |
| [Ca+2].[Cl-].[Cl-] [Ca^+2, CaCl2] |  | can be reversed |

Source: US9290745B2, “Luciferase biosensor” (PROMEGA CORPORATION, priority 2003, dated 2016)
